How the values were obtained:
Assay type in all cases: in vivo
[1] = test system: AVEFA (Avena fatua); test: Pre-emergence herbicidal effect against AVEFA; details: 80 g/ha, scored visually after 3 weeks
Text: (§1) Seeds of monocotyledonous and dicotyledonous weed plants and crop plants are laid out in sandy loam soil in wood-fiber pots and covered with soil. The compounds of the invention, formulated in the form of wettable powders (WP) or as emulsion concentrates (EC), are then applied to the surface of the covering soil as aqueous suspension or emulsion at a water application rate equating to 600 to 800 l/ha with addition of 0.2% wetting agent. After the treatment, the pots are placed in a greenhouse and kept under good growth conditions for the trial plants. The damage to the test plants is scored visually after a test period of 3 weeks by comparison with untreated controls (herbicidal activity in percent (%): 100% activity=the plants have died, 0% activity=like control plants).

[2] = test system: VIOTR (Viola tricolor); test: Post-emergence herbicidal action against VIOTR; details: visual assessment after about 3 weeks
Procedure: (§2) Seeds of monocotyledonous and dicotyledonous weed and crop plants are laid out in sandy loam soil in wood-fiber pots, covered with soil and cultivated in a greenhouse under good growth conditions. 2 to 3 weeks after sowing, the trial plants are treated at the one-leaf stage. The compounds of the invention, formulated in the form of wettable powders (WP) or as emulsion concentrates (EC), are then sprayed onto the green parts of the plants as aqueous suspension or emulsion at a water application rate equating to 600 to 800 l/ha with addition of 0.2% wetting agent. After the test plants have been left to stand in the greenhouse under optimal growth conditions for about 3 weeks, the action of the preparations is assessed visually in comparison to untreated controls (herbicidal action in percent (%): 100% activity=the plants have died, 0% activity=like control plants).

[3] = test system: LOLRI (Lolium rigidum); test: Pre-emergence herbicidal effect against LOLRI; details: 80 g/ha, scored visually after 3 weeks
Text: as §1

[4] = test system: AMARE (Amaranthus retroflexus); test: Post-emergence herbicidal action against AMARE; details: visual assessment after about 3 weeks
Procedure: as §2

[5] = test system: AVEFA (Avena fatua); test: Post-emergence herbicidal action against AVEFA; details: 80 g/ha, visual assessment after about 3 weeks
Procedure: as §2

[6] = test system: VIOTR (Viola tricolor); test: Pre-emergence herbicidal effect against VIOTR; details: scored visually after 3 weeks
Text: as §1

[7] = test system: KCHSC (Kochia scoparia); test: Post-emergence herbicidal action against KCHSC; details: visual assessment after about 3 weeks
Procedure: as §2

[8] = test system: AMARE (Amaranthus retroflexus); test: Pre-emergence herbicidal effect against AMARE; details: scored visually after 3 weeks
Text: as §1

[9] = test system: MATIN (Matricaria inodora); test: Pre-emergence herbicidal effect against MATIN; details: scored visually after 3 weeks
Text: as §1

[10] = test system: ECHCG (Echinochloa crus-galli); test: Post-emergence herbicidal action against ECHCG; details: visual assessment after about 3 weeks
Procedure: as §2

[11] = test system: ABUTH (Abutylon threophrasti); test: Pre-emergence herbicidal effect against ABUTH; details: scored visually after 3 weeks
Text: as §1

[12] = test system: SETVI (Setaria viridis); test: Post-emergence herbicidal action against SETVI; details: visual assessment after about 3 weeks
Procedure: as §2

[13] = test system: VERPE (Veronica persica); test: Pre-emergence herbicidal effect against VERPE; details: scored visually after 3 weeks
Text: as §1

[14] = test system: VERPE (Veronica persica); test: Post-emergence herbicidal action against VERPE; details: visual assessment after about 3 weeks
Procedure: as §2

[15] = test system: DIGSA (Digitaria sanguinalis); test: Post-emergence herbicidal action against DIGSA; details: visual assessment after about 3 weeks
Procedure: as §2

[16] = test system: ABUTH (Abutylon threophrasti); test: Post-emergence herbicidal action against ABUTH; details: visual assessment after about 3 weeks
Procedure: as §2

[17] = test system: DIGSA (Digitaria sanguinalis); test: Pre-emergence herbicidal effect against DIGSA; details: scored visually after 3 weeks
Text: as §1

[18] = test system: SETVI (Setaria viridis); test: Pre-emergence herbicidal effect against SETVI; details: scored visually after 3 weeks
Text: as §1

[19] = test system: ECHCG (Echinochloa crus-galli); test: Pre-emergence herbicidal effect against ECHCG; details: scored visually after 3 weeks
Text: as §1

[20] = test system: PHBPU (Pharbitis purpurea); test: Pre-emergence herbicidal effect against PHBPU; details: 80 g/ha, scored visually after 3 weeks
Text: as §1

[21] = test system: KCHSC (Kochia scoparia); test: Pre-emergence herbicidal effect against KCHSC; details: scored visually after 3 weeks
Text: as §1

[22] = test system: MATIN (Matricaria inodora); test: Post-emergence herbicidal action against MATIN; details: visual assessment after about 3 weeks
Procedure: as §2

[23] = test system: PHBPU (Pharbitis purpurea); test: Post-emergence herbicidal action against PHBPU; details: visual assessment after about 3 weeks
Procedure: as §2

Structure (SMILES): CS(=O)(=O)c1c(OC(F)F)ccc(C(=O)Nc2nnco2)c1Cl [Example 1-25, 2-chloro-4-(difluoromethoxy)-3-(methylsulfonyl)-N-(1,3,4-oxadiazol-2-yl)benzamide]
- Pre-emergence effect at 80 g/ha against A VEFA in % [1]: 90%
- Post-emergence effect at 20 g/ha against VIOTR in % ([2]; 20 g/ha): 100%
- Post-emergence effect at 80 g/ha against VIOTR in % ([2]; 80 g/ha): 100%
- Pre-emergence effect at 80 g/ha against LOLRI in % [3]: 90%
- Post-emergence effect at 20 g/ha against AMARE in % ([4]; 20 g/ha): 100%
- Post-emergence effect at 80 g/ha against AMARE in % ([4]; 80 g/ha): 100%
- Post-emergence effect at 80 g/ha against AVEFA in % [5]: 100%
- Pre-emergence effect at 20 g/ha against VIOTR in % ([6]; 20 g/ha): 100%
- Pre-emergence effect at 80 g/ha against VIOTR in % ([6]; 80 g/ha): 100%
- Post-emergence effect at 20 g/ha against KCHSC in % ([7]; 20 g/ha): 100%
- Post-emergence effect at 80 g/ha against KCHSC in % ([7]; 80 g/ha): 100%
- Pre-emergence effect at 20 g/ha against AMARE in % ([8]; 20 g/ha): 100%
- Pre-emergence effect at 80 g/ha against AMARE in % ([8]; 80 g/ha): 100%
- Pre-emergence effect at 20 g/ha against MATIN in % ([9]; 20 g/ha): 100%
- Pre-emergence effect at 80 g/ha against MATIN in % ([9]; 80 g/ha): 100%
- Post-emergence effect at 20 g/ha against ECHCG in % ([10]; 20 g/ha): 80%
- Post-emergence effect at 80 g/ha against ECHCG in % ([10]; 80 g/ha): 100%
- Pre-emergence effect at 20 g/ha against ABUTH in % ([11]; 20 g/ha): 100%
- Pre-emergence effect at 80 g/ha against ABUTH in % ([11]; 80 g/ha): 100%
- Post-emergence effect at 20 g/ha against SETVI in % ([12]; 20 g/ha): 100%
- Post-emergence effect at 80 g/ha against SETVI in % ([12]; 80 g/ha): 100%
- Pre-emergence effect at 20 g/ha against VERPE in % ([13]; 20 g/ha): 90%
- Pre-emergence effect at 80 g/ha against VERPE in % ([13]; 80 g/ha): 100%
- Post-emergence effect at 20 g/ha against VERPE in % ([14]; 20 g/ha): 90%
- Post-emergence effect at 80 g/ha against VERPE in % ([14]; 80 g/ha): 100%
- Post-emergence effect at 20 g/ha against DIGSA in % ([15]; 20 g/ha): 100%
- Post-emergence effect at 80 g/ha against DIGSA in % ([15]; 80 g/ha): 100%
- Post-emergence effect at 20 g/ha against ABUTH in % ([16]; 20 g/ha): 100%
- Post-emergence effect at 80 g/ha against ABUTH in % ([16]; 80 g/ha): 100%
- Pre-emergence effect at 20 g/ha against DIGSA in % ([17]; 20 g/ha): 100%
- Pre-emergence effect at 80 g/ha against DIGSA in % ([17]; 80 g/ha): 100%
- Pre-emergence effect at 20 g/ha against SETVI in % ([18]; 20 g/ha): 100%
- Pre-emergence effect at 80 g/ha against SETVI in % ([18]; 80 g/ha): 100%
- Pre-emergence effect at 20 g/ha against ECHCG in % ([19]; 20 g/ha): 100%
- Pre-emergence effect at 80 g/ha against ECHCG in % ([19]; 80 g/ha): 100%
- Pre-emergence effect at 80 g/ha against PHBPU in % [20]: 90%
- Pre-emergence effect at 20 g/ha against KCHSC in % ([21]; 20 g/ha): 100%
- Pre-emergence effect at 80 g/ha against KCHSC in % ([21]; 80 g/ha): 100%
- Post-emergence effect at 20 g/ha against MATIN in % ([22]; 20 g/ha): 100%
- Post-emergence effect at 80 g/ha against MATIN in % ([22]; 80 g/ha): 100%
- Post-emergence effect at 20 g/ha against PHBPU in % ([23]; 20 g/ha): 100%
- Post-emergence effect at 80 g/ha against PHBPU in % ([23]; 80 g/ha): 100%

Reference: patent US20240287007A1, “N-(1,3,4-OXADIAZOL-2-YL)PHENYLCARBOXAMIDES AS HERBICIDES” (BAYER AKTIENGESELLSCHAFT, priority 2021, published 2024)
